Experimental data taken from patent US8377942B2, “Isoxazolines derivatives and their use as pesticide” (Novartis AG, priority 2008, dated 2013).

Each molecule was assayed on Rhipicephalus sanguineus nymphs (assay: Activity in vivo against Rhipicephalus sanguineus nymphs on Mongolian gerbils (spray application)). Conditions: Dose 100 mg/kg, tick number reduction vs placebo (Abbot's formula), 7 days after infestation.
Procedure: 3. Activity In Vivo Against Rhipicephalus sanguineus Nymphs on Mongolian Gerbils (Meriones unguiculatus) (Spray Application) On day 0, gerbils are treated with the test compound at a given dose by spray application. On day +1, the animals are infested with nymphs of R. sangineus. Ticks are left on the animals until full repletion. Seven days after infestation nymphs dropped off fully engorged are collected and counted. Efficacy in killing is expressed as a tick number reduction in comparison with a placebo treated group using the Abbot's formula.

SMILES | Efficacy (%)
FC(F)(F)C1(c2cc(Cl)cc(Cl)c2)CC(c2ccc(-c3cn(Cc4ccccn4)nn3)c3ccccc23)=NO1 (stereo not drawn) [Compound 1.27, 2-(4-{4-[5-(3,5-dichloro-phenyl)-5-trifluoromethyl-4,5-dihydro-isoxazol-3-yl]-naphthalen-1-yl}-[1,2,3]triazol-1-ylmethyl)-pyridine] | 79
O=C(NCc1cn(-c2ccc(C3=NOC(c4cc(Cl)cc(Cl)c4)(C(F)(F)F)C3)c3ccccc23)nn1)c1ccncc1 (stereo not drawn) [Compound 1.61, N-(1-{4-[5-(3,5-dichloro-phenyl)-5-trifluoromethyl-4,5-dihydro-isoxazol-3-yl]-naphthalen-1-yl}-1H-[1,2,3]triazol-4-ylmethyl)-isonicotinamide] | 96
FC(F)(F)C1(c2cc(Cl)cc(Cl)c2)CC(c2ccc(-n3cncn3)c3ccccc23)=NO1 (stereo not drawn) [Compound 1.1, 1-{4-[5-(3,5-dichloro-phenyl)-5-trifluoromethyl-4,5-dihydro-isoxazol-3-yl]-naphthalen-1-yl}-1H-[1,2,4]triazole] | 85
